Legend:
human ChoKα1 = molecular target: T1, human ChoKα1 (Homo sapiens, UniProt P35790); experiment: Tryptophan fluorescence quenching; format: binding; settings: mean ± S.D. of at least three independent experiments; 25 °C, enzyme 1 μM; read-out: HsChoKα1 Kd
T1 construct: made in house
Procedure: All compounds were prepared in 100% DMSO. Their Kds against human ChoKα1 were measured by monitoring the quenching of tryptophan fluorescence. All experiments were performed in a Cary Eclipse spectrofluorometer (Varian) at 25 °C with the enzymes at 1 μM, and concentrations of compounds varying from 0.1 to 5 μM for ChoKα1 in 25 mM Tris, 150 mM NaCl, pH 7.5. Fluorescence emission spectra were recorded in the 300–400 nm range with an excitation wavelength of 280 nm, with slit width of 5 nm. Controls were determined by incubating the enzymes with equivalent amounts of DMSO. As indicated previously, data analysis was performed in Prism (GraphPad software) considering a model with a single binding site (Eq. 1), where F0 is the intrinsic fluorescence of the enzyme in the absence of quencher (Q), F1 is the observed fluorescence at a given quencher concentration, fa is the fractional degree of fluorescence, and Kd is the dissociation constant.

purified human ChoKα1 = purified human ChoKα1 (Homo sapiens, UniProt P35790); experiment: Determination of human choline kinase α1 activity ([methyl-14C]choline incorporation into phosphocholine); format: biochemical; settings: mean ± SEM, three independent experiments; read-out: IC50 ChoKα1 purified
Procedure: The effect of the different inhibitors on human choline kinase (ChoK) was assayed in ChoKα1 purified as previously described[32]. In each experiment DMSO-assays were always run in parallel as a control. DMSO in no case exceeded a concentration of 0.1% in order to avoid unspecific ChoK inhibition. ChoK activity was assayed by measuring the rate of incorporation of ^14C from [methyl-^14C]choline into phosphocholine both in the presence or absence of different inhibitor concentrations. Briefly, the final reaction mixture contained 100 mM Tris (pH 8.5), 10 mM MgCl2, and 10 mM ATP, and 20 ng of purified ChoKα1. […] The assay was stopped by immersing the reaction tubes in boiling water for 3 min. Aliquots of the reaction mixture were applied to the origin of Silica Gel plates in the presence of phosphocholine (0.1 mg) and choline (0.1 mg) as carriers. The chromatography was developed in methanol/0.6% NaCl/28% NH4OH in water (50:50:5, v/v/v) as solvent. Phosphocholine was visualized under exposure to iodine vapor and the corresponding spot was scraped and transferred to scintillation vials for measurement of radioactivity by a Beckman 6000-TA (Madrid, Spain) liquid-scintillation counter. At least three experiments were performed in all assays.

A549 cells = experiment: Antiproliferative MTT assay; format: cell-based; settings: Homo sapiens, 72 h, mean ± SEM
Procedure: (§1) Human T-cell leukemia (Jurkat), human B-cell leukemia (RS 4,11) and human promyelocytic leukemia (HL-60) cells were grown in RPMI-1640 medium (Gibco, Milan, Italy). Breast adenocarcinoma (MCF-7 and MDA-MB-231), human non-small cell lung carcinoma (A549), human cervix carcinoma (HeLa), human prostate adenocarcinoma (PC-3), and human colon adenocarcinoma (HT-29) cells were grown in DMEM medium (Gibco, Milan, Italy). Both media were supplemented with 115 units/mL of penicillin G (Gibco, Milan, Italy), 115 μg/mL of streptomycin (Invitrogen, Milan, Italy) and 10% fetal bovine serum (Invitrogen, Milan, Italy). Stock solutions (10 mM) of the different compounds were obtained by dissolving them in DMSO. Individual wells of 96-well tissue-culture microtiter plates were inoculated with 100 μL of complete medium containing 8 × 10^3 cells. The plates were incubated at 37 °C in a humidified 5% CO2 incubator for 18 h prior to the experiments. After medium removal, 100 μL of fresh medium containing the test compound at different concentrations was added to each well and incubated at 37 °C for 72 h. The percentage of DMSO in the medium in no case exceeded 0.25%.

HL-60 cells = experiment: Antiproliferative MTT assay; format: cell-based; settings: Homo sapiens, 72 h, mean ± SEM
Procedure: as §1

HT-29 cells = experiment: Antiproliferative MTT assay; format: cell-based; settings: Homo sapiens, 72 h, mean ± SEM
Procedure: as §1

HeLa cells [1] = experiment: Antiproliferative MTT assay; format: cell-based; settings: Homo sapiens, 72 h, mean ± SEM
Procedure: as §1

Jurkat cells [2] = experiment: Antiproliferative MTT assay; format: cell-based; settings: Homo sapiens, 72 h, mean ± SEM
Procedure: as §1

MCF-7 cells [3] = experiment: Antiproliferative MTT assay; format: cell-based; settings: Homo sapiens, MCF7, 72 h, mean ± SEM
Procedure: as §1

MDA-MB-231 cells [4] = experiment: Antiproliferative MTT assay; format: cell-based; settings: Homo sapiens, 72 h, mean ± SEM
Procedure: as §1

PC-3 cells = experiment: Antiproliferative MTT assay; format: cell-based; settings: Homo sapiens, 72 h, mean ± SEM
Procedure: as §1

RS4,11 cells = experiment: Antiproliferative MTT assay; format: cell-based; settings: Homo sapiens, 72 h, mean ± SEM
Procedure: as §1

PBL (+Pha) = experiment: Antiproliferative assay in non-tumoral cells (MTT); format: cell-based; settings: Homo sapiens, non-tumoral cells stimulated with phytohematoagglutinin, 72 h, mean ± SEM
Procedure: (§2) Peripheral mononuclear cells (PBMC) from healthy donors were obtained by separation on Lymphoprep (Fresenius KABI Norge AS) gradient. After extensive washing, cells were resuspended (1 × 10^6 cells/mL) in RPMI-1640 with 10% fetal bovine serum and incubated overnight. For cytotoxicity evaluations in proliferating PBL cultures, non-adherent cells were resuspended at 5 × 10^5 cells/mL in growth medium, containing 2.5 μg/mL PHA (Irvine Scientific). Different concentrations of the test compounds were added, and viability was determined 72 h later by the MTT test. For cytotoxicity evaluations in resting PBL cultures, non-adherent cells were resuspended (5 × 10^5 cells/mL) and treated for 72 h with the test compounds, as described above.

PBL (resting) = experiment: Antiproliferative assay in non-tumoral cells (MTT); format: cell-based; settings: Homo sapiens, 72 h, mean ± SEM
Procedure: as §2

Human fibroblasts = experiment: Antiproliferative assay in non-tumoral cells; format: cell-based; settings: Fibroblast, mean ± SEM
Text: Human fibroblasts from foreskin were isolated as previously described[58] and maintained in DMEM medium with 10% fetal bovine serum added.

HUVEC = experiment: Antiproliferative assay in non-tumoral cells; format: cell-based; settings: Homo sapiens, mean ± SEM
Procedure: Human Umbilical Vein Endothelial cells (HUVEC), were prepared from human umbilical-cord veins, as previously described. The adherent cells were maintained in M200 medium added by LSGS (low serum growth supplement), containing FBS, hydrocortisone, hEGF, bFGF, heparin, gentamycin/amphotericin (Life Technologies, Monza, Italy). Once confluent, the cells were detached by trypsin–EDTA solution and used in experiments from the first to sixth passages.

HeLa cells [5] = experiment: Trypan blue exclusion assay; format: cell-based, human; settings: concentration-dependent
Procedure: as §1

MDA-MB-231 cells [6] = experiment: Trypan blue exclusion assay; format: cell-based, human; settings: MDA-MB-231, concentration-dependent
Procedure: as §1

Jurkat cells [7] = experiment: Annexin-V/PI assay; format: cell-based, human; settings: 72 h, positive controls Cis-Pt 50 μM, Etoposide 5 μM
Procedure: (§3) Surface exposure of PS on apoptotic cells was measured by flow cytometry with Cytomics FC500 (Beckman Coulter) by adding simultaneously annexin-V conjugated to fluorescein isothiocyanate (FITC) and PI to cells according to the manufacturer′s instructions (Annexin-V Fluos, Roche Diagnostic).

MCF-7 cells [8] = experiment: Annexin-V/PI assay; format: cell-based, human; settings: MCF-7, 72 h; positive controls Cis-Pt 50 μM, Etoposide 5 μM
Procedure: as §3

MDA-MB-231 cells [9] = experiment: Annexin-V/PI assay; format: cell-based, human; settings: MDA-MB-231, 72 h; positive controls Cis-Pt 50 μM, Etoposide 5 μM
Procedure: as §3

T1 sequence (P35790 whole entry): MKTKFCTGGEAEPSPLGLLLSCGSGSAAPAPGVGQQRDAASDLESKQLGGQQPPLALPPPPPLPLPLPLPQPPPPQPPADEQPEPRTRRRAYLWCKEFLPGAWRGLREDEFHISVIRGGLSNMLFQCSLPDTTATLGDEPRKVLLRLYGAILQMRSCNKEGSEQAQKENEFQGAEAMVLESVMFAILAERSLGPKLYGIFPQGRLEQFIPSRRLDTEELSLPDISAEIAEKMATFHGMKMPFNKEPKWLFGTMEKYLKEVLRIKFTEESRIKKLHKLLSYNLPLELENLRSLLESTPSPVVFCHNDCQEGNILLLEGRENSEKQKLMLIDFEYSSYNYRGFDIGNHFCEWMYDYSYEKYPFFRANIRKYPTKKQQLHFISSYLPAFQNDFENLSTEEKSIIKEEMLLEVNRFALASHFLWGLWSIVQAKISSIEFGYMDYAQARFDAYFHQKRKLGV
Sequence of purified human ChoKα1 (P35790 whole entry): as above

- Kd (human ChoKα1): 700 ± 80 nM
- IC50 (purified human ChoKα1): 1000 ± 10 nM
- GI50 (A549 cells): 27 ± 10 nM
- GI50 (HL-60 cells): 100 ± 40 nM
- GI50 (HT-29 cells): 110 ± 10 nM
- GI50 (HeLa cells [1]): 79 ± 24 nM
- GI50 (Jurkat cells [2]): 120 ± 80 nM
- GI50 (MCF-7 cells [3]): 92 ± 19 nM
- GI50 (MDA-MB-231 cells [4]): 100 ± 50 nM
- GI50 (PC-3 cells): 51 ± 10 nM
- GI50 (RS4,11 cells): 45 ± 5 nM
SMILES: CN(C)c1cc[n+](Cc2ccc(OCCOc3ccc(C[n+]4ccc(N(C)C)cc4)cc3)cc2)cc1.[Br-].[Br-] [Compound 10a, 1,1′-(((ethane-1,2-diylbis(oxy))bis(4,1-phenylene))bis(methylene))bis(4-(dimethylamino)pyridinium) bromide]
- GI50 (PBL (+Pha)): 34 ± 7 nM
- GI50 (PBL (resting)): 1500 ± 640 nM
- GI50 (Human fibroblasts): 5800 ± 1300 nM
- GI50 (HUVEC): 5100 ± 430 nM
- Cell growth by trypan blue count (HeLa cells [5]): significantly inhibited cell growth
- Cell growth by trypan blue count (MDA-MB-231 cells [6]): significantly inhibited cell growth
- Apoptotic cells (annexin-V/PI) (Jurkat cells [7]): modest increment in apoptotic cells
- Apoptotic cells (annexin-V/PI) (MCF-7 cells [8]): not to be significantly different from that of the untreated cells
- Apoptotic cells (annexin-V/PI) (MDA-MB-231 cells [9]): not to be significantly different from that of the untreated cells
